Measurements published in US5298519A, “Acylals of imidazole-5-carboxylic acid derivatives, and their use as angiotensin (II) inhibitors” (priority 1991, dated 1994).

Legend:
angiotensin II receptor [1] = experiment: isolated rat aorta, inhibition of maximum contraction due to angiotensin II; format: cell-based; conditions: for inhibition at 0.1 µM / inhibition at 0.01 µM / inhibition at 0.001 µM: Rattus norvegicus, angiotensin II 3 × 10^-7 mol/l; for inhibition at 0.1 µM: 10^-7 mol/l compound; for inhibition at 0.01 µM: 10^-8 mol/l compound; for inhibition at 0.001 µM: 10^-9 mol/l compound
Description: FIGS. 1a) and b) depict the action of a compound according to the present invention and a compound of the prior art on the contractile force of an isolated rat aorta.
Isolated rat aorta: % inhibition of the maximum contraction

[2] = biological target: angiotensin II-1 subtype receptor; experiment: affinity for angiotensin II-1 subtype receptor on rat adrenal cortex microsomes (3H-DuP 753); format: binding; conditions: adrenal cortex microsomes of rats
Method: The affinity of the substances for the angiotensin II-1 subtype receptor was determined on adrenal cortex microsomes of rats (system: ^3 H-DuP 753).

angiotensin II receptor [3] = conditions: cited from earlier work
angiotensin II [4] = experiment: pithed rats, inhibition of hypertensive action of angiotensin II; format: in vivo, rat
Description: FIGS. 2a), b) and c) depict the effect of the presently claimed and known intravenously administered compounds on angiotensin II induced increases on diastolic blood pressure in pithed rats.
FIGS. 3a), b) and c) depict the effect of known and claimed intraduodenally administered compounds on angiotensin II induced increases of diastolic blood pressure in pithed rats.
FIG. 4 depicts further the effect of known and prior art intraduodenally administered compounds on angiotensin II induced increases of diastolic blood pressure in pithed rats.

angiotensin II [5] = experiment: anaesthetized, normotensive rats, duration of action against angiotensin II after intraduodenal administration; format: in vivo, rat; conditions: for time to maximum angiotensin antagonistic action: after intraduodenal administration, Example 1 at 3 mg/kg
Method: FIG. 5 depicts the effect of known and prior art intraduodenally administered compounds on angiotensin II induced increases of mean arterial blood pressure in anaesthetized, normotensive rats.
FIGS. 6a) and b) depict the effect of known and prior art intraduodenally administered compounds on antiotensin II induced increases in mean arterial blood pressure in normotensive rats.
The duration of action of the substance was determined in anaesthetized, normotensive rats. Angiotensin II (1 μg.kg) was administered intravenously before substance administration and at 15 minute intervals after intraduodenal substance administration.

[6] = anaesthetized normotensive rats, intraduodenal

Row | SMILES | inhibition at 0.1 µM (angiotensin II receptor [1]) [%] | inhibition at 0.01 µM (angiotensin II receptor [1]) [%] | inhibition at 0.001 µM (angiotensin II receptor [1]) [%] | type of angiotensin II receptor antagonism (angiotensin II receptor [1]; isolated rat aorta) | reduction of the maximum contraction due to angiotensin II (in words) (angiotensin II receptor [1]; isolated rat aorta, 10^-9 -10^-7 mol/l) | IC50 [2] [nM] | contribution to the duration of action of DuP 753 (angiotensin II receptor [3]; in vivo) | type of antagonism (angiotensin II receptor [3]; metabolite of DuP 753) | type of inhibition of the hypertensive action of angiotensin II (angiotensin II [4]) | sequence of potency (angiotensin II [4]; intraduodenal) | effectiveness relative to 10 mg/kg of DuP 753 (angiotensin II [5]; 3 mg/kg of Example 1, intraduodenal, anaesthetized normotensive rats) | time to maximum angiotensin antagonistic action (angiotensin II [5]) [min] | sequence of potency (angiotensin II [5]; [6]) | onset of action (angiotensin II [5]; intraduodenal, normotensive rats) | potency after intraduodenal administration (angiotensin II [4]; intraduodenal) | potency relative to EXP 3174 (angiotensin II [4]; intravenous, Example 1 0.3-10 mg/kg) | potency relative to DuP 753 (angiotensin II [4]; intravenous, Example 1 0.3-10 mg/kg, DuP 753 1-10 mg/kg) | conversion on in vivo administration (angiotensin II receptor [3]; in vivo)
1 | CCCCc1nc(Cl)c(C(=O)O)n1Cc1ccc(-c2ccccc2-c2nnn[nH]2)cc1 [EXP 3174, 2-n-butyl-4-chloro-1-((2'-(1H-tetrazol-5-yl)biphenyl-4-yl)methyl)imidazole-5-carboxylic acid] | 100 | 95 | 76 | selective, non-competitive angiotensin II receptor antagonists | acting in a comparatively more potent manner | 7.87 | responsible to a large extent for the duration of action of DuP 753 | non-competitive | in a non-competitive manner | Example 1>DuP 753>EXP 3174 |  |  |  |  |  |  |  | 
2 | CCCCc1nc(Cl)c(C(=O)OC(C)OC(=O)OCC)n1Cc1ccc(-c2ccccc2-c2nn[nH]n2)cc1 (stereo not drawn) [Example 1] | 98 | 72 | 63 | selective, non-competitive angiotensin II receptor antagonists |  | 79.4 |  |  | in a non-competitive manner | Example 1>DuP 753>EXP 3174 | about twice as effective as 10 mg/kg of DuP 753 | 15 | Example 1>DuP 753 | particularly rapid, dose-dependent onset of action | by far the most potent substance | about as potent as EXP 3174 | slightly more potent than DuP 753 | 
3 | CCCCc1nc(Cl)c(CO)n1Cc1ccc(-c2ccccc2-c2nnn[nH]2)cc1 [DuP 753, 2-n-butyl-4-chloro-5-hydroxymethyl-1-((2'-(1H-tetrazol-5-yl)biphenyl-4-yl)methyl)imidazole] |  |  |  |  |  | 7.24 |  |  | competitive inhibition, that is to say to a parallel shift to the right of the dose-response curve of angiotensin II without a reduction in the maximum effect | Example 1>DuP 753>EXP 3174 |  | 30 to 60 | Example 1>DuP 753 |  |  |  |  | converted on in vivo administration to a non-competitive metabolite EXP 3174
